According to article PMC5526877, “Structure of Chorismate Mutase-like Domain of DAHPS from Bacillus subtilis Complexed with Novel Inhibitor Reveals Conformational Plasticity of Active Site” (Scientific Reports, 2017):
Structures can show the parent of a compound that is named as a salt.

Assays:
[1] = biological target: T1, BsCM_2 (chorismate mutase type II N-terminal domain of DAHPS) (Bacillus subtilis, UniProt P39912); experiment: co-crystal structure at […] Å and ITC; also competitive enzyme inhibition (Ki […], IC50 […]); type: binding; parameters: gene aroA; N-terminal chorismate mutase-like domain of DAHPS (306 bp fragment), homodimer; settings: read-out: Dissociation constant, K D
[2] = biological target: T1, BsCM_2 (chorismate mutase type II N-terminal domain of DAHPS); experiment: crystal structure at […] Å (citrate from crystallization buffer) and ITC; type: binding; parameters: gene aroA; N-terminal chorismate mutase-like domain of DAHPS (306 bp fragment), homodimer
[3] = biological target: T1, BsCM_2 (chorismate mutase type II N-terminal domain of DAHPS); experiment: ITC; also Michaelis-Menten kinetics (Km […]); type: binding; parameters: gene aroA; N-terminal chorismate mutase-like domain of DAHPS (306 bp fragment); settings: read-out: Dissociation constant, K D
[4] = biological target: the molecule itself; experiment: crystal structure; BsCM_2 co-crystallised with chlorogenic acid (1.8 Å, P21, two monomers per asymmetric unit) and with citrate from the buffer (1.9 Å, P1, four monomers per asymmetric unit); sitting drop, 1 M ammonium sulphate, 0.1 M potassium sodium tartrate, 0.1 M sodium citrate pH 5.8, 20 °C; dimer interface analysed with PISA

O=C(/C=C/c1ccc(O)c(O)c1)O[C@@H]1C[C@](O)(C(=O)O)C[C@@H](O)[C@H]1O [CGA, chlorogenic acid]
Kd [1]: 480 µM

O=C(O)CC(O)(CC(=O)O)C(=O)O [CIT, citrate]
Kd [2]: 600 µM

C=C(O[C@@H]1C=C(C(=O)O)C=C[C@H]1O)C(=O)O [chorismate]
Kd [3]: 725 µM

B1: Chorismate mutase type II-like N-terminal domain (AroQ class) of 3-deoxy-D-arabino-heptulosonate-7-phosphate synthase (DAHPS) from Bacillus subtilis (domain or fragment, Bacillus subtilis strain 3256)
chain: MSNTELELLRQKADELNLQILKLINERGNVVKEIGKAKEAQGVNRFDPVRERTMLNNIIENNDGPFENSTIQHIFKEIFKAGLELQEEDH
notes: the forward primer encodes MSNTEL from the start codon, the reverse primer encodes ...QEEDH followed by a stop codon; residues 1-88 are spoken of in the structures; strain 3256 may differ; also called BsCM_2; CM_2 domain; source: E. coli BL21 (DE3), pET28c/BsCM_2, purified (HisTrap Ni-NTA, Superdex 75 SEC)
stoichiometry N [4]: 2
